Measured values as given in ChEMBL document CHEMBL5104164, “Design, synthesis, and biological evaluation of pyrrolopyrimidine derivatives as novel Bruton's tyrosine kinase (BTK) inhibitors” (Eur J Med Chem, 2022).

Tests used:
[1] = target: Tyrosine-protein kinase BTK (Homo sapiens, UniProt Q06187); experiment: Inhibition of BTK (unknown origin) measured by ADP-Glo assay
[2] = system: TMD8; experiment: Antiproliferative activity against human TMD8 cells incubated for 72 hrs by CellTiter-Glo assay; details: TMD8, 72 h
[3] = AUC (0 to infinity) in male BALB/c mouse at 2 mg/kg, iv; assay type: ADME, organism-based; set-up: time infinity, dose 2 mg/kg, route iv; details: in vivo
[4] = Tmax in male BALB/c mouse at 2 mg/kg, iv; assay type: ADME, organism-based; details: in vivo
[5] = AUC (0 to t) in male BALB/c mouse at 2 mg/kg, iv; assay type: ADME, organism-based; set-up: dose 2 mg/kg, route iv; details: in vivo
[6] = AUC (0 to infinity) in male BALB/c mouse at 10 mg/kg, po; assay type: ADME, organism-based; set-up: time infinity, dose 10 mg/kg, route po; details: in vivo
[7] = Cmax in male BALB/c mouse at 10 mg/kg, po; assay type: ADME, organism-based; set-up: dose 10 mg/kg, route po; details: in vivo
[8] = Cmax in male BALB/c mouse at 2 mg/kg, iv; assay type: ADME, organism-based; set-up: dose 2 mg/kg, route iv; details: in vivo
[9] = Half-life in male BALB/c mouse at 2 mg/kg, iv; assay type: ADME, organism-based; details: in vivo
[10] = Apparent volume of distribution in male BALB/c mouse at 2 mg/kg, iv; assay type: ADME, organism-based; details: in vivo, read-out: Vz
[11] = AUC (0 to t) in male BALB/c mouse at 10 mg/kg, po; assay type: ADME, organism-based; set-up: dose 10 mg/kg, route po; details: in vivo
[12] = Oral bioavailability in male BALB/c mouse; assay type: ADME, organism-based; details: in vivo
[13] = Half-life in male BALB/c mouse at 10 mg/kg, po; assay type: ADME, organism-based; details: in vivo
[14] = Clearance in male BALB/c mouse at 2 mg/kg, iv; assay type: ADME, organism-based; details: in vivo
[15] = Tmax in male BALB/c mouse at 10 mg/kg, po; assay type: ADME, organism-based; details: in vivo

Sequence of Tyrosine-protein kinase BTK (Q06187 whole entry): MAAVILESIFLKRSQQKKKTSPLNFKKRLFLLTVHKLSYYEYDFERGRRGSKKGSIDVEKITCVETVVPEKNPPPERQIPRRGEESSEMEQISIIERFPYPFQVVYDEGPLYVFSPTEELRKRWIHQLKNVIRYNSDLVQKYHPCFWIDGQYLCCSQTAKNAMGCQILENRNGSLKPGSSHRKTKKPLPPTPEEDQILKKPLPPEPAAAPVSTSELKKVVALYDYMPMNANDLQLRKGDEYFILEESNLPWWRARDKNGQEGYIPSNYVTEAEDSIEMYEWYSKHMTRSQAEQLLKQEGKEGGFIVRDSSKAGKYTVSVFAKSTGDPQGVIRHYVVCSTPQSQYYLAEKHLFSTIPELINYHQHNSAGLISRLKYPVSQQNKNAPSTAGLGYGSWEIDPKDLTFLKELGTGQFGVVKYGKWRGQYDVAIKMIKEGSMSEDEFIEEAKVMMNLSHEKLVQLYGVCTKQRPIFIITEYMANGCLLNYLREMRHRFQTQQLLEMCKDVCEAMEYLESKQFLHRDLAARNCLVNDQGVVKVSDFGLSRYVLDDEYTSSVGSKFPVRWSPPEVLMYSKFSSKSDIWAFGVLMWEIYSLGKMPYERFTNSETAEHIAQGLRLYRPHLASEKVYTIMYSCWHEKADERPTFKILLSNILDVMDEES

Structure (SMILES): CC#CC(=O)N1CCC(Nc2ncnc3[nH]cc(C(=O)N4CC(Oc5ccccc5)C4)c23)CC1
- IC50 [1]: 974 nM

Structure (SMILES): C=CC(=O)N1CCC(O)(CNc2ncnc3[nH]cc(C(=O)N4CC(Oc5ccccc5)C4)c23)CC1
- IC50 [1]: 2.2 nM
- IC50 [2]: 320 nM

Structure (SMILES): C=CC(=O)NC1CCCN(c2ncnc3[nH]cc(C(=O)N4CC(Oc5ccccc5)C4)c23)C1 (stereo not given)
- IC50 [1]: 5410 nM

Structure (SMILES): C=CC(=O)N1CC=C(c2c[nH]c3ncnc(-c4ccc(CNC(=O)c5ccc(C(C)(C)C)cc5)c(C)c4)c23)CC1
- IC50 [1]: 1.34 nM

Structure (SMILES): CC#CC(=O)N1CCC(c2c[nH]c3ncnc(-c4ccc(CNC(=O)c5ccc(C(C)(C)C)cc5)c(F)c4)c23)CC1
- AUC(0-inf) [3]: 231 ng·h/mL
- IC50 [1]: 1.2 nM
- Tmax [4]: 1.8 min
- IC50 [2]: 1.8 nM
- AUC(0-t) [5]: 229 ng·h/mL
- AUC(0-inf) [6]: 9.57 ng·h/mL
- Cmax [7]: 49.9 ng/mL
- Cmax [8]: 2160 ng/mL
- half-life [9]: 167 min
- Vd [10]: 34.8 L/kg
- AUC(0-t) [11]: 8.94 ng·h/mL
- bioavailability [12]: 0.78%
- half-life [13]: 83.4 min
- clearance [14]: 144 mL/min/kg
- Tmax [15]: 4.8 min

Structure (SMILES): C=CC(=O)N1CCC(CNc2ncnc3[nH]cc(C(=O)N4CC(Oc5ccccn5)C4)c23)CC1
- IC50 [1]: 0.8 nM
- IC50 [2]: 38.1 nM

Structure (SMILES): C=CC(=O)N1CCC(Nc2ncnc3[nH]cc(C(=O)N4CC(Oc5ccccc5)C4)c23)CC1
- IC50 [1]: 593 nM

Structure (SMILES): C=CC(=O)N1CCC(c2c[nH]c3ncnc(-c4ccc(CNC(=O)c5ccc(C(C)(C)C)cc5)cc4)c23)CC1
- IC50 [1]: 2.1 nM

Structure (SMILES): CC#CC(=O)N1CCCC(Nc2ncnc3[nH]cc(C(=O)N4CC(Oc5ccccc5)C4)c23)C1 (stereo not given)
- IC50 [1]: 153 nM

Structure (SMILES): C=CC(=O)N1CCC(CNc2ncnc3[nH]cc(C(=O)N4CC(Oc5ccc(F)cc5)C4)c23)CC1
- IC50 [1]: 0.7 nM
- IC50 [2]: 84.1 nM

Structure (SMILES): C=CC(=O)N1CCC(c2c[nH]c3ncnc(-c4ccc(CNC(=O)c5ccc(C(C)(C)C)cc5)c(C)c4)c23)CC1
- IC50 [1]: 0.8 nM
- IC50 [2]: 1.5 nM

Structure (SMILES): CC#CC(=O)N1CC=C(c2c[nH]c3ncnc(-c4ccc(CNC(=O)c5ccc(C(C)(C)C)cc5)c(F)c4)c23)CC1
- IC50 [1]: 0.8 nM
- IC50 [2]: 1.7 nM

Structure (SMILES): C=CC(=O)N1CCC(CNc2ncnc3[nH]cc(C(=O)NCc4ccccc4)c23)CC1
- IC50 [1]: 52.3 nM

Structure (SMILES): C=CC(=O)N1CCC(CNc2ncnc3[nH]cc(C(=O)N4CC(Oc5cccc(F)c5)C4)c23)CC1
- AUC(0-inf) [3]: 541 ng·h/mL
- IC50 [1]: 0.4 nM
- Tmax [4]: 1.8 min
- IC50 [2]: 9.2 nM
- AUC(0-t) [5]: 539 ng·h/mL
- AUC(0-inf) [6]: 75.3 ng·h/mL
- Cmax [7]: 148 ng/mL
- Cmax [8]: 2230 ng/mL
- half-life [9]: 15.6 min
- Vd [10]: 1.37 L/kg
- AUC(0-t) [11]: 69.5 ng·h/mL
- bioavailability [12]: 2.58%
- half-life [13]: 57 min
- clearance [14]: 61.8 mL/min/kg
- Tmax [15]: 15 min

Structure (SMILES): C=CC(=O)N1CCC(CNc2ncnc3[nH]cc(C(=O)NCCOc4ccccc4)c23)CC1
- IC50 [1]: 8.4 nM

Structure (SMILES): CC#CC(=O)N1CC=C(c2c[nH]c3ncnc(-c4ccc(CNC(=O)c5ccccc5)c(F)c4)c23)CC1
- IC50 [1]: 1 nM
- IC50 [2]: 5.4 nM

Structure (SMILES): C=CC(=O)N1CCC(CNc2ncnc3[nH]cc(C(=O)N4CCC(Oc5ccccc5)CC4)c23)CC1
- IC50 [1]: 26.2 nM

Structure (SMILES): CC#CC(=O)N1CCC(Nc2ncnc3[nH]cc(C(=O)N4CC(Oc5ccccc5)C4)c23)C1 (stereo not given)
- IC50 [1]: 68.5 nM

Structure (SMILES): CC#CC(=O)NC1CCCN(c2ncnc3[nH]cc(C(=O)N4CC(Oc5ccccc5)C4)c23)C1 (stereo not given)
- IC50 [1]: > 10000 nM

Structure (SMILES): C=CC(=O)N1CCC(CNc2ncnc3[nH]cc(C(=O)N4CC(Oc5cccc(Cl)c5)C4)c23)CC1
- AUC(0-inf) [3]: 541 ng·h/mL
- IC50 [1]: 0.5 nM
- Tmax [4]: 3 min
- IC50 [2]: 12.9 nM
- AUC(0-t) [5]: 359 ng·h/mL
- AUC(0-inf) [6]: 32.9 ng·h/mL
- Cmax [7]: 48.6 ng/mL
- Cmax [8]: 1250 ng/mL
- half-life [9]: 11.4 min
- Vd [10]: 1.52 L/kg
- AUC(0-t) [11]: 32.8 ng·h/mL
- bioavailability [12]: 1.82%
- half-life [13]: 23.4 min
- clearance [14]: 92.8 mL/min/kg
- Tmax [15]: 6.6 min

Structure (SMILES): C=CC(=O)N1CCC(Nc2ncnc3[nH]cc(C(=O)N4CC(Oc5ccccc5)C4)c23)C1 (stereo not given)
- IC50 [1]: 4.5 nM
- IC50 [2]: 2530 nM

Structure (SMILES): C=CC(=O)N1CCC(CNc2ncnc3[nH]cc(C(=O)N4CC(OC(C)C)C4)c23)CC1
- IC50 [1]: 23.2 nM

Structure (SMILES): C=CC(=O)N1CCC(CNc2ncnc3[nH]cc(C(=O)N4CC(Oc5cccc6ccccc56)C4)c23)CC1
- IC50 [1]: 0.8 nM
- IC50 [2]: 22.6 nM

Structure (SMILES): C=CC(=O)N1CCC(CNc2ncnc3[nH]cc(C(=O)NCCc4ccccc4)c23)CC1
- IC50 [1]: 17.3 nM

Structure (SMILES): C=CC(=O)N1CC[C@H](n2nc(C#Cc3cc(OC)cc(OC)c3)c3c(N)ncnc32)C1 [FUTIBATINIB]
- IC50 [1]: 94.9 nM
